Measurements from patent US20050113292A1 (priority 2003, published 2005).

Key:
[1] = tested on: HIV-1 mediated cell-cell fusion (R8 virus); details: mediated cell-cell fusion (R8 virus)
T-tropic (R8) HIV-1 = details: T-tropic (R8)
M-tropic (BAL) HIV-1 = details: M-tropic (BAL)

SMILES	IC50 [1] [nM]	IC50 (T-tropic (R8) HIV-1) [nM]	IC50 (M-tropic (BAL) HIV-1) [nM]
CC(C)C[C@H](NC(=O)[C@H](CO)NC(=O)[C@H](C)NC(=O)[C@H](Cc1c[nH]c2ccccc12)NC(=O)[C@H](CCCCN)NC(=O)[C@H](CC(=O)O)NC(=O)[C@H](CC(C)C)NC(=O)[C@H](CCC(=O)O)NC(=O)[C@H](CC(C)C)NC(=O)[C@@H]1CSC(C(=O)NCCCC[C@H](NC(=O)CCNC(=O)C2N[C@H](C(=O)N[C@@H](CC(C)C)C(=O)N[C@@H](CCC(=O)O)C(=O)N[C@@H](CC(C)C)C(=O)N[C@@H](CC(=O)O)C(=O)N[C@@H](CCCCN)C(=O)N[C@@H](Cc3c[nH]c4ccccc34)C(=O)N[C@@H](C)C(=O)N[C@@H](CO)C(=O)N[C@@H](CC(C)C)C(=O)N[C@@H](Cc3c[nH]c4ccccc34)C(=O)N[C@@H](CC(N)=O)C(=O)N[C@@H](Cc3c[nH]c4ccccc34)C(=O)N[C@@H](Cc3ccccc3)C(=O)O)CS2)C(=O)N[C@@H](CO)C(=O)N[C@@H](CO)C(=O)N[C@@H](C)C(N)=O)N1)C(=O)N[C@@H](Cc1c[nH]c2ccccc12)C(=O)N[C@@H](CC(N)=O)C(=O)N[C@@H](Cc1c[nH]c2ccccc12)C(=O)N[C@@H](Cc1ccccc1)C(=O)O (stereo partly drawn) [Compound 2α-C13]	290	310	430
CC(C)C[C@H](NC(=O)[C@H](CO)NC(=O)[C@H](C)NC(=O)[C@H](Cc1c[nH]c2ccccc12)NC(=O)[C@H](CCCCN)NC(=O)[C@H](CC(=O)O)NC(=O)[C@H](CC(C)C)NC(=O)[C@H](CCC(=O)O)NC(=O)[C@H](CC(C)C)NC(=O)[C@H](CC(C)C)NC(=O)[C@H](CCC(=O)O)NC(=O)[C@H](CCC(N)=O)NC(=O)[C@H](CCC(=O)O)NC(=O)[C@H](CC(N)=O)NC(=O)[C@H](CCCCN)NC(=O)[C@H](CCC(=O)O)NC(=O)[C@H](CCC(N)=O)NC(=O)[C@H](CCC(N)=O)NC(=O)[C@H](CC(N)=O)NC(=O)[C@H](CCC(N)=O)NC(=O)[C@@H]1CSC(C(=O)NCCCC[C@H](NC(=O)CCNC(=O)C2N[C@H](C(=O)N[C@@H](CCC(N)=O)C(=O)N[C@@H](CC(N)=O)C(=O)N[C@@H](CCC(N)=O)C(=O)N[C@@H](CCC(N)=O)C(=O)N[C@@H](CCC(=O)O)C(=O)N[C@@H](CCCCN)C(=O)N[C@@H](CC(N)=O)C(=O)N[C@@H](CCC(=O)O)C(=O)N[C@@H](CCC(N)=O)C(=O)N[C@@H](CCC(=O)O)C(=O)N[C@@H](CC(C)C)C(=O)N[C@@H](CC(C)C)C(=O)N[C@@H](CCC(=O)O)C(=O)N[C@@H](CC(C)C)C(=O)N[C@@H](CC(=O)O)C(=O)N[C@@H](CCCCN)C(=O)N[C@@H](Cc3c[nH]c4ccccc34)C(=O)N[C@@H](C)C(=O)N[C@@H](CO)C(=O)N[C@@H](CC(C)C)C(=O)N[C@@H](Cc3c[nH]c4ccccc34)C(=O)N[C@@H](CC(N)=O)C(=O)N[C@@H](Cc3c[nH]c4ccccc34)C(=O)N[C@@H](Cc3ccccc3)C(=O)O)CS2)C(=O)N[C@@H](CO)C(=O)N[C@@H](CO)C(=O)N[C@@H](C)C(N)=O)N1)C(=O)N[C@@H](Cc1c[nH]c2ccccc12)C(=O)N[C@@H](CC(N)=O)C(=O)N[C@@H](Cc1c[nH]c2ccccc12)C(=O)N[C@@H](Cc1ccccc1)C(=O)O (stereo partly drawn) [Compound 2α-C24]	38	80	67
CC(C)C[C@H](NC(=O)[C@H](CO)NC(=O)[C@H](C)NC(=O)[C@H](Cc1c[nH]c2ccccc12)NC(=O)[C@H](CCCCN)NC(=O)[C@H](CC(=O)O)NC(=O)[C@H](CC(C)C)NC(=O)[C@H](CCC(=O)O)NC(=O)[C@H](CC(C)C)NC(=O)[C@@H]1CSC(C(=O)NCCCC[C@H](NC(=O)CCNC(=O)C2N[C@H](C(=O)N[C@@H](CC(C)C)C(=O)N[C@@H](CCC(=O)O)C(=O)N[C@@H](CC(C)C)C(=O)N[C@@H](CC(=O)O)C(=O)N[C@@H](CCCCN)C(=O)N[C@@H](Cc3c[nH]c4ccccc34)C(=O)N[C@@H](C)C(=O)N[C@@H](CO)C(=O)N[C@@H](CC(C)C)C(=O)N[C@@H](Cc3c[nH]c4ccccc34)C(=O)N[C@@H](CC(N)=O)C(=O)N[C@@H](Cc3c[nH]c4ccccc34)C(=O)N[C@@H](Cc3ccccc3)C(=O)O)CS2)C(=O)N[C@@H](CCCCNC(=O)CNC(=O)C2N[C@H](C(=O)N[C@@H](CC(C)C)C(=O)N[C@@H](CCC(=O)O)C(=O)N[C@@H](CC(C)C)C(=O)N[C@@H](CC(=O)O)C(=O)N[C@@H](CCCCN)C(=O)N[C@@H](Cc3c[nH]c4ccccc34)C(=O)N[C@@H](C)C(=O)N[C@@H](CO)C(=O)N[C@@H](CC(C)C)C(=O)N[C@@H](Cc3c[nH]c4ccccc34)C(=O)N[C@@H](CC(N)=O)C(=O)N[C@@H](Cc3c[nH]c4ccccc34)C(=O)N[C@@H](Cc3ccccc3)C(=O)O)CS2)C(=O)N[C@@H](CO)C(=O)N[C@@H](CO)C(=O)N[C@@H](C)C(N)=O)N1)C(=O)N[C@@H](Cc1c[nH]c2ccccc12)C(=O)N[C@@H](CC(N)=O)C(=O)N[C@@H](Cc1c[nH]c2ccccc12)C(=O)N[C@@H](Cc1ccccc1)C(=O)O (stereo partly drawn) [Compound 3α-C13]	260	430	430
CC[C@H](C)[C@H](NC(=O)[C@@H]1CSC(C(=O)NCCCC[C@H](NC(=O)CCNC(=O)C2N[C@H](C(=O)N[C@H](C(=O)N[C@@H](CCC(=O)O)C(=O)N[C@@H](CCC(=O)O)C(=O)N[C@@H](CO)C(=O)N[C@@H](CCC(N)=O)C(=O)N[C@@H](CC(N)=O)C(=O)N[C@@H](CCC(N)=O)C(=O)N[C@@H](CCC(N)=O)C(=O)N[C@@H](CCC(=O)O)C(=O)N[C@@H](CCCCN)C(=O)N[C@@H](CC(N)=O)C(=O)N[C@@H](CCC(=O)O)C(=O)N[C@@H](CCC(N)=O)C(=O)N[C@@H](CCC(=O)O)C(=O)N[C@@H](CC(C)C)C(=O)N[C@@H](CC(C)C)C(=O)O)[C@@H](C)CC)CS2)C(=O)N[C@@H](CCCCNC(=O)CNC(=O)C2N[C@H](C(=O)N[C@H](C(=O)N[C@@H](CCC(=O)O)C(=O)N[C@@H](CCC(=O)O)C(=O)N[C@@H](CO)C(=O)N[C@@H](CCC(N)=O)C(=O)N[C@@H](CC(N)=O)C(=O)N[C@@H](CCC(N)=O)C(=O)N[C@@H](CCC(N)=O)C(=O)N[C@@H](CCC(=O)O)C(=O)N[C@@H](CCCCN)C(=O)N[C@@H](CC(N)=O)C(=O)N[C@@H](CCC(=O)O)C(=O)N[C@@H](CCC(N)=O)C(=O)N[C@@H](CCC(=O)O)C(=O)N[C@@H](CC(C)C)C(=O)N[C@@H](CC(C)C)C(=O)O)[C@@H](C)CC)CS2)C(=O)N[C@@H](CO)C(=O)N[C@@H](CO)C(=O)N[C@@H](C)C(N)=O)N1)C(=O)N[C@@H](CCC(=O)O)C(=O)N[C@@H](CCC(=O)O)C(=O)N[C@@H](CO)C(=O)N[C@@H](CCC(N)=O)C(=O)N[C@@H](CC(N)=O)C(=O)N[C@@H](CCC(N)=O)C(=O)N[C@@H](CCC(N)=O)C(=O)N[C@@H](CCC(=O)O)C(=O)N[C@@H](CCCCN)C(=O)N[C@@H](CC(N)=O)C(=O)N[C@@H](CCC(=O)O)C(=O)N[C@@H](CCC(N)=O)C(=O)N[C@@H](CCC(=O)O)C(=O)N[C@@H](CC(C)C)C(=O)N[C@@H](CC(C)C)C(=O)O (stereo partly drawn) [Compound 3α-C16]	> 1000	> 1000	124
CC(C)C[C@H](NC(=O)[C@H](CO)NC(=O)[C@H](C)NC(=O)[C@H](Cc1c[nH]c2ccccc12)NC(=O)[C@H](CCCCN)NC(=O)[C@H](CC(=O)O)NC(=O)[C@H](CC(C)C)NC(=O)[C@H](CCC(=O)O)NC(=O)[C@H](CC(C)C)NC(=O)[C@H](CC(C)C)NC(=O)[C@H](CCC(=O)O)NC(=O)[C@H](CCC(N)=O)NC(=O)[C@H](CCC(=O)O)NC(=O)[C@H](CC(N)=O)NC(=O)[C@H](CCCCN)NC(=O)[C@H](CCC(=O)O)NC(=O)[C@H](CCC(N)=O)NC(=O)[C@H](CCC(N)=O)NC(=O)[C@H](CC(N)=O)NC(=O)[C@H](CCC(N)=O)NC(=O)[C@@H]1CSC(C(=O)NCCCC[C@H](NC(=O)CCNC(=O)C2N[C@H](C(=O)N[C@@H](CCC(N)=O)C(=O)N[C@@H](CC(N)=O)C(=O)N[C@@H](CCC(N)=O)C(=O)N[C@@H](CCC(N)=O)C(=O)N[C@@H](CCC(=O)O)C(=O)N[C@@H](CCCCN)C(=O)N[C@@H](CC(N)=O)C(=O)N[C@@H](CCC(=O)O)C(=O)N[C@@H](CCC(N)=O)C(=O)N[C@@H](CCC(=O)O)C(=O)N[C@@H](CC(C)C)C(=O)N[C@@H](CC(C)C)C(=O)N[C@@H](CCC(=O)O)C(=O)N[C@@H](CC(C)C)C(=O)N[C@@H](CC(=O)O)C(=O)N[C@@H](CCCCN)C(=O)N[C@@H](Cc3c[nH]c4ccccc34)C(=O)N[C@@H](C)C(=O)N[C@@H](CO)C(=O)N[C@@H](CC(C)C)C(=O)N[C@@H](Cc3c[nH]c4ccccc34)C(=O)N[C@@H](CC(N)=O)C(=O)N[C@@H](Cc3c[nH]c4ccccc34)C(=O)N[C@@H](Cc3ccccc3)C(=O)O)CS2)C(=O)N[C@@H](CCCCNC(=O)CNC(=O)C2N[C@H](C(=O)N[C@@H](CCC(N)=O)C(=O)N[C@@H](CC(N)=O)C(=O)N[C@@H](CCC(N)=O)C(=O)N[C@@H](CCC(N)=O)C(=O)N[C@@H](CCC(=O)O)C(=O)N[C@@H](CCCCN)C(=O)N[C@@H](CC(N)=O)C(=O)N[C@@H](CCC(=O)O)C(=O)N[C@@H](CCC(N)=O)C(=O)N[C@@H](CCC(=O)O)C(=O)N[C@@H](CC(C)C)C(=O)N[C@@H](CC(C)C)C(=O)N[C@@H](CCC(=O)O)C(=O)N[C@@H](CC(C)C)C(=O)N[C@@H](CC(=O)O)C(=O)N[C@@H](CCCCN)C(=O)N[C@@H](Cc3c[nH]c4ccccc34)C(=O)N[C@@H](C)C(=O)N[C@@H](CO)C(=O)N[C@@H](CC(C)C)C(=O)N[C@@H](Cc3c[nH]c4ccccc34)C(=O)N[C@@H](CC(N)=O)C(=O)N[C@@H](Cc3c[nH]c4ccccc34)C(=O)N[C@@H](Cc3ccccc3)C(=O)O)CS2)C(=O)N[C@@H](CO)C(=O)N[C@@H](CO)C(=O)N[C@@H](C)C(N)=O)N1)C(=O)N[C@@H](Cc1c[nH]c2ccccc12)C(=O)N[C@@H](CC(N)=O)C(=O)N[C@@H](Cc1c[nH]c2ccccc12)C(=O)N[C@@H](Cc1ccccc1)C(=O)O (stereo partly drawn) [Compound 3α-C24]	290	310	36
